Source: US20190313644A1, “METHOD FOR FRUIT THINNING” (Adama Agan Ltd., priority 2015, published 2019)

Columns and labels:
[1] = system: Golden Delicious variety of apples; experiment: Fruit thinning field trial, first and optional second application of metamitron; assay type: in vivo; details: for Thinning Effect (%): vs untreated control
Experimental: A formulation of metamitron in the form of a soluble granule was diluted to the desired concentration with water. The following concentrations were prepared: • 1.1 Kg/ha metamitron (low dosage) • 1.65 Kg/ha metamitron (medium dosage) • 2.2 Kg/ha metamitron (high dosage) The experiments were conducted on the Golden Delicious variety of apples in Germany and Italy. The first application of metamitron was applied to the fruit trees in May when the fruit was at fruiting stage BBCH69-BBCH72. The second application of metamitron was applied, if applicable, five days after the first application. Local meteorological data was obtained from local weather stations. The meteorological data was inputted into the MaluSim Carbon Balance Model of Lakso (described at […].cornell.edu/apple_thin_help.html, the contents of which are hereby incorporated by reference) in order to obtain the level of carbohydrates available in the fruit tree. The thinning effect is calculated by comparing the treated fruit trees with the untreated control as follows: […]

[2] = system: Golden Delicious variety of apples; experiment: Photosynthetic activity levels of the fruit bearing tree after the first application; assay type: in vivo
Experimental: The experiments were conducted on the Golden Delicious variety of apples in Germany and Italy. The first application of metamitron was applied to the fruit trees in May when the fruit was at fruiting stage BBCH69-BBCH72. The second application of metamitron was applied, if applicable, five days after the first application. […] Based on this and on the predicted meteorological data for the time of the second application, the second application should be applied at a high dose in order to effectively thin the fruit bearing tree. […] No over-thinning was observed.

[3] = Germany, 1st application 1.65 Kg/ha, 2nd application 0 Kg/ha
[4] = Germany, 1st application 1.65 Kg/ha, 2nd application 1.1 Kg/ha
[5] = Germany, 1st application 1.65 Kg/ha, 2nd application 2.2 Kg/ha
[6] = Germany, 1st application 2.2 Kg/ha, 2nd application 0 Kg/ha
[7] = Germany, 1st application 2.2 Kg/ha, 2nd application 1.1 Kg/ha
[8] = Germany, 1st application 2.2 Kg/ha, 2nd application 1.65 Kg/ha
[9] = Germany, 1st application 2.2 Kg/ha, 2nd application 2.2 Kg/ha
[10] = Italy, 1st application 1.65 Kg/ha, 2nd application 0 Kg/ha
[11] = Italy, 1st application 1.65 Kg/ha, 2nd application 1.1 Kg/ha
[12] = Italy, 1st application 1.65 Kg/ha, 2nd application 2.2 Kg/ha
[13] = Italy, 1st application 2.2 Kg/ha, 2nd application 0 Kg/ha
[14] = Italy, 1st application 2.2 Kg/ha, 2nd application 2.2 Kg/ha

Cc1nnc(-c2ccccc2)c(=O)n1N [metamitron]
Fruit Load (fruits/tcsa) [1, 3]: 11.20 fruits/tcsa | Thinning Effect (%) [1, 3]: 33.2% | Fruit Load (fruits/tcsa) [1, 4]: 11.42 fruits/tcsa | Thinning Effect (%) [1, 4]: 31.8% | Fruit Load (fruits/tcsa) [1, 5]: 6.83 fruits/tcsa | Thinning Effect (%) [1, 5]: 59.3% | Fruit Load (fruits/tcsa) [1, 6]: 11.44 fruits/tcsa | Thinning Effect (%) [1, 6]: 31.8% | Fruit Load (fruits/tcsa) [1, 7]: 11.40 fruits/tcsa | Thinning Effect (%) [1, 7]: 32.0% | Fruit Load (fruits/tcsa) [1, 8]: 11.98 fruits/tcsa | Thinning Effect (%) [1, 8]: 28.5% | Fruit Load (fruits/tcsa) [1, 9]: 8.07 fruits/tcsa | Thinning Effect (%) [1, 9]: 51.8% | Fruit Load (fruits/tcsa) [1, 10]: 12.33 fruits/tcsa | Thinning Effect (%) [1, 10]: 31.27% | Fruit Load (fruits/tcsa) [1, 11]: 12.30 fruits/tcsa | Thinning Effect (%) [1, 11]: 31.39% | Fruit Load (fruits/tcsa) [1, 12]: 9.58 fruits/tcsa | Thinning Effect (%) [1, 12]: 46.57% | Fruit Load (fruits/tcsa) [1, 13]: 12.67 fruits/tcsa | Thinning Effect (%) [1, 13]: 29.38% | Fruit Load (fruits/tcsa) [1, 14]: 9.37 fruits/tcsa | Thinning Effect (%) [1, 14]: 47.75% | Photosynthetic Activity levels ([2]; Germany, after 1st application 1.65 Kg/ha): Low | Photosynthetic Activity levels ([2]; Germany, after 1st application 2.2 Kg/ha): Low | Photosynthetic Activity levels ([2]; Italy, after 1st application 1.65 Kg/ha): Low | Photosynthetic Activity levels ([2]; Italy, after 1st application 2.2 Kg/ha): Low
